The source of these data is ChEMBL document CHEMBL3046841, “The synthesis and screening of the antimicrobial activity of some novel 3-(furan-2-yl)-1-(aryl)-3-(phenylthio) propan-1-one derivatives” (2011).

Structures are written as SMILES. Values after ≈ are worked out from the molar mass of the structure shown.

What all share (assay type): functional
Experiment [1] relates to Pseudomonas aeruginosa. The experiment is described as follows: Antimicrobial activity against Pseudomonas aeruginosa ATCC 9027 after 24 hr by serial microdilution method. The settings on record: ATCC 9027, 24 h.
The test system of experiment [2] is Bacillus subtilis. The experiment is described as follows: Antimicrobial activity against Bacillus subtilis ATCC 6633 at 105 ug/disk after 24 hr by disk diffusion method. Conditions: ATCC 6633, 24 h, read-out: IZ.
Experiment [3] concerns Pseudomonas aeruginosa. Description: Antimicrobial activity against Pseudomonas aeruginosa ATCC 9027 at 105 ug/disk after 24 hr by disk diffusion method. The settings on record: ATCC 9027, 24 h, read-out: IZ.
For experiment [4], the system named is Cyberlindnera jadinii. Description: Antimicrobial activity against Cyberlindnera jadinii KUEN 1031 at 105 ug/disc after 48 hr by disk diffusion method. Conditions: Williopsis jadinii, KUEN 1031, 48 h; read-out: IZ.
In experiment [5] the test system is Bacillus cereus. Description: Antimicrobial activity against Bacillus cereus DSM 4312 at 105 ug/disk after 24 hr by disk diffusion method. Conditions: DSM 4312, 24 h, read-out: IZ.
For experiment [6], the system named is Candida albicans. The experiment is described as follows: Antimicrobial activity against Candida albicans ATCC 1213 at 105 ug/disk after 48 hr by disk diffusion method. Conditions: ATCC 1213, 48 h, read-out: IZ.
For experiment [7], the system named is Candida albicans. The experiment is described as follows: Antimicrobial activity against Candida albicans ATCC 1213 by serial microdilution method.
The test system of experiment [8] is Salmonella enteritidis. Description: Antimicrobial activity against Salmonella enterica subsp. enterica serovar Enteritidis ATCC 13076 at 105 ug/disk after 24 hr by disk diffusion method. Conditions: ATCC 13076, 24 h, read-out: IZ.
In experiment [9] the test system is Cyberlindnera jadinii. Description: Antimicrobial activity against Cyberlindnera jadinii KUEN 1031 serial microdilution method. The settings on record: Williopsis jadinii.
The test system of experiment [10] is Bacillus cereus. The experiment is described as follows: Antimicrobial activity against Bacillus cereus DSM 4312 after 24 hr by serial microdilution method. The settings on record: DSM 4312, 24 h.
Experiment [11] relates to Pseudomonas aeruginosa. The experiment is described as follows: Antimicrobial activity against Pseudomonas aeruginosa ATCC 27859 after 24 hr by serial microdilution method. Conditions: ATCC 27859, 24 h.
For experiment [12], the system named is Staphylococcus aureus. Description: Antimicrobial activity against Staphylococcus aureus ATCC 29213 after 24 hr by serial microdilution method. The settings on record: ATCC 29213, 24 h.
Experiment [13] deals with Escherichia coli. The experiment is described as follows: Antimicrobial activity against Escherichia coli 111 at 105 ug/disk after 24 hr by disk diffusion method. Conditions: Escherichia coli, 111, 24 h; read-out: IZ.
The test system of experiment [14] is Proteus vulgaris. Description: Antimicrobial activity against Proteus vulgaris KUEN 1329 after 24 hr by serial microdilution method. Conditions: KUEN 1329, 24 h.
The subject of experiment [15] is Salmonella enteritidis. The experiment is described as follows: Antimicrobial activity against Salmonella enterica subsp. enterica serovar Enteritidis ATCC 13076 after 24 hr by serial microdilution method. Conditions: ATCC 13076, 24 h.
The subject of experiment [16] is Bacillus subtilis. The experiment is described as follows: Antimicrobial activity against Bacillus subtilis ATCC 6633 after 24 hr by serial microdilution method. Conditions: ATCC 6633, 24 h.
In experiment [17] the test system is Escherichia coli. The experiment is described as follows: Antimicrobial activity against Escherichia coli 111 after 24 hr by serial microdilution method. Conditions: Escherichia coli, 111, 24 h.
Experiment [18] has as its system Streptococcus pyogenes. The experiment is described as follows: Antimicrobial activity against Streptococcus pyogenes ATCC 176 after 24 hr by serial microdilution method. The settings on record: ATCC 176, 24 h.
Experiment [19] concerns Pseudomonas aeruginosa. The experiment is described as follows: Antimicrobial activity against Pseudomonas aeruginosa ATCC 27859 at 105 ug/disk after 24 hr by disk diffusion method. The settings on record: ATCC 27859, 24 h, read-out: IZ.
Experiment [20] relates to Proteus vulgaris. The experiment is described as follows: Antimicrobial activity against Proteus vulgaris KUEN 1329 at 105 ug/disk after 24 hr by disk diffusion method. The settings on record: KUEN 1329, 24 h, read-out: IZ.
For experiment [21], the system named is Staphylococcus aureus. The experiment is described as follows: Antimicrobial activity against Staphylococcus aureus ATCC 29213 at 105 ug/disc after 24 hr by disk diffusion method. The settings on record: ATCC 29213, 24 h, read-out: IZ.
Experiment [22] deals with Streptococcus pyogenes. Description: Antimicrobial activity against Streptococcus pyogenes ATCC 176 at 105 ug/disc after 24 hr by disc diffusion method. Conditions: ATCC 176, 24 h, read-out: IZ.

On to `COc1ccccc1C(=O)CC(Sc1ccccc1)c1ccco1` (stereo not given), for which the MIC against Pseudomonas aeruginosa [1] was determined as 31.2 µg/mL (≈ 92.3 µM); with Candida albicans [7] it was 125 µg/mL (≈ 369 µM); against Cyberlindnera jadinii [9], 125 µg/mL (≈ 369 µM); in the experiment with Bacillus cereus [10], 31.2 µg/mL (≈ 92.3 µM); against Pseudomonas aeruginosa [11], 62.5 µg/mL (≈ 185 µM); against Staphylococcus aureus [12], 7.81 µg/mL (≈ 23.1 µM). Also, the MIC in the experiment with Proteus vulgaris [14] worked out at 31.2 µg/mL (≈ 92.3 µM); in the experiment on Salmonella enteritidis [15] it was 15.6 µg/mL (≈ 46.2 µM); in the experiment with Bacillus subtilis [16], 31.2 µg/mL (≈ 92.3 µM); in the experiment with Escherichia coli [17] it was 62.5 µg/mL (≈ 185 µM); against Streptococcus pyogenes [18], 31.2 µg/mL (≈ 92.3 µM). Besides, the zone of inhibition at 105 µg/disc was found to be 14 mm with Bacillus subtilis [2]; 15 mm in the experiment with Pseudomonas aeruginosa [3]; 14 mm in the experiment with Cyberlindnera jadinii [4]; 10 mm in the experiment on Bacillus cereus [5]; 17 mm with Candida albicans [6]; 18 mm with Salmonella enteritidis [8]. In addition, the zone of inhibition at 105 µg/disc in the experiment with Escherichia coli [13] amounted to 13 mm; with Pseudomonas aeruginosa [19] it was 15 mm; in the experiment on Proteus vulgaris [20], 15 mm; with Staphylococcus aureus [21], 17 mm; in the experiment on Streptococcus pyogenes [22], 15 mm.

Turning to `O=C(CC(Sc1ccccc1)c1ccco1)c1cccc(Cl)c1` (stereo not given), the MIC in the experiment with Pseudomonas aeruginosa [1] worked out at 15.6 µg/mL (≈ 45.6 µM); in the experiment with Candida albicans [7], 15.6 µg/mL (≈ 45.6 µM); against Cyberlindnera jadinii [9], 15.6 µg/mL (≈ 45.6 µM); against Bacillus cereus [10], 31.2 µg/mL (≈ 91.1 µM); against Pseudomonas aeruginosa [11], 62.5 µg/mL (≈ 182 µM); against Staphylococcus aureus [12], 31.2 µg/mL (≈ 91.1 µM). Besides, the minimal inhibitory concentration (MIC) against Proteus vulgaris [14] is 31.2 µg/mL (≈ 91.1 µM); in the experiment on Salmonella enteritidis [15] it was 15.6 µg/mL (≈ 45.6 µM); with Bacillus subtilis [16], 31.2 µg/mL (≈ 91.1 µM); in the experiment with Escherichia coli [17], over 125 µg/mL; against Streptococcus pyogenes [18] it was 31.2 µg/mL (≈ 91.1 µM). The zone of inhibition at 105 µg/disc in the experiment with Bacillus subtilis [2] is 14 mm; in the experiment on Pseudomonas aeruginosa [3] it was 15 mm; in the experiment with Cyberlindnera jadinii [4], 15 mm; with Bacillus cereus [5], 11 mm; with Candida albicans [6] it was 17 mm; with Salmonella enteritidis [8], 19 mm. For the same molecule, the zone of inhibition at 105 µg/disc in the experiment on Pseudomonas aeruginosa [19] was 16 mm; with Proteus vulgaris [20], 17 mm; in the experiment with Staphylococcus aureus [21], 16 mm; in the experiment on Streptococcus pyogenes [22], 14 mm.

`O=C(CC(Sc1ccccc1)c1ccco1)c1ccccc1Br` (stereo not given): the MIC with Pseudomonas aeruginosa [1] is over 125 µg/mL; in the experiment with Candida albicans [7] it was over 125 µg/mL; against Cyberlindnera jadinii [9], over 125 µg/mL; in the experiment on Bacillus cereus [10], 31.2 µg/mL (≈ 80.7 µM); against Pseudomonas aeruginosa [11], 31.2 µg/mL (≈ 80.7 µM); in the experiment with Staphylococcus aureus [12] it was 7.81 µg/mL (≈ 20.2 µM). Further, the MIC is 62.5 µg/mL (≈ 161 µM) with Proteus vulgaris [14]; over 125 µg/mL with Salmonella enteritidis [15]; 31.2 µg/mL (≈ 80.7 µM) with Bacillus subtilis [16]; 62.5 µg/mL (≈ 161 µM) against Escherichia coli [17]; over 125 µg/mL in the experiment on Streptococcus pyogenes [18]. The zone of inhibition at 105 µg/disc in the experiment with Bacillus subtilis [2] amounted to 15 mm; in the experiment on Pseudomonas aeruginosa [3] it was 15 mm; with Cyberlindnera jadinii [4], 15 mm; in the experiment on Bacillus cereus [5], 12 mm; with Candida albicans [6], 17 mm; in the experiment with Salmonella enteritidis [8] it was 15 mm. The zone of inhibition at 105 µg/disc in the experiment with Escherichia coli [13] was 10 mm; in the experiment with Pseudomonas aeruginosa [19], 16 mm; with Proteus vulgaris [20], 16 mm; in the experiment on Staphylococcus aureus [21], 17 mm; in the experiment with Streptococcus pyogenes [22], 13 mm.
